Test results reported in patent US6589996B2, “Treatment of disorders relating to the serotonergic system” (Orion Corporation, priority 2000, dated 2003).
Read-outs that look alike come from different tables or passages of the source.

Tests used:
[1] = human, in vivo
Procedure: In a comparative pharmacokinetic study of orally administered deramciclane in rats, dogs, rabbits and humans (Klebovich et al Pharm. Pharmacol. Commun., 4:129-136, 1998), it was shown that the plasma concentration curves obtained after the administration of a single 3 mg/kg oral dose of deramciclane to rats (dogs, rabbits) and human show considerable species specific differences. […] Thus a 40-times lower oral dose of deramciclane could be used in man to result in the same maximal plasma concentration as in rat. […] Thus, over 300 times lower oral doses should result in equal exposure in humans than in rats. Basing only the Cmax difference between rat and man, it can be predicted that considerably lower doses should be centrally active in humans than in rat. The minimum oral effective anti-anxiety dose in rats was 1 mg/kg (1-30 mg/kg the full range; see above), i.e. in a 70 kg-man this would mean 70 mg dose. […] This would result in 70 mg/40=1.75 mg (i.e. 0.025 mg/kg) as an effective dose in man.

[2] = tested on: anxiety, specifically GAD; test: randomised placebo-controlled double-blind study in GAD: anxiety symptoms (HAM-A, CGI); format: in vivo, human; conditions: for CGI severity of illness: percentage of patients not ill or very mildly ill: after 8 weeks
Procedure: (§1) The efficacy of deramciclane in the treatment of anxiety, specifically GAD, was studied in a randomised placebo-controlled double-blind study. In addition, the dosage-dependency of the effects of deramciclane was evaluated. A total of 208 patients were included in the study. The subjects were randomly assigned to four parallel groups to receive one tablet twice daily (b.i.d) of a placebo, 5 mg (=10 mg/day), 15 mg (=30 mg/day), or 30 mg (=60mg/day) deramciclane. The study started with a one-week placebo run-in period, followed by an eight-week placebo-controlled active treatment and a two-week placebo washout period.
The efficacy of deramciclane on anxiety symptoms was studied by the efficacy variable Hamilton Anxiety Scale (HAM-A), analyzing the change in the score and using responder criterion (at least 50% reduction in HAM-A total score). The Clinical Global Impression (GCI) scale was also used for analyzing the efficacy of deramciclane on anxiety symptoms.

withdrawal symptoms = test: randomised placebo-controlled double-blind study in GAD: Physician's Withdrawal Checklist (PWC); format: in vivo, human
Procedure: as §1
After stopping the above-described 8-week treatment period, no discontinuation effects were seen (measured by the Physician's Withdrawal Checklist, PWC). This is different and surprising from the experiences with the most other efficacious drugs used for the treatment of anxiety.

depressive symptoms = test: randomised placebo-controlled double-blind study in GAD: depressive symptoms (MADRS); format: in vivo, human
Procedure: as §1
The efficacy of deramciclane on depressive symptoms was studied using the Montgomery Asberg Depression Rating Scale (MADRS).

serotonin 5HT2A-receptor = serotonin 5HT2A-receptor (Homo sapiens, UniProt P28223); conditions: cited from earlier work
[3] = biological target: serotonin 5-HT2C-receptor (Homo sapiens, UniProt P28335); conditions: cited from earlier work
rats [4] = conditions: cited from earlier work
rats [5] = conditions: single intraperitoneal administration; cited from earlier work
mice [6] = conditions: single subcutaneous administration, 3 mg/kg; cited from earlier work
rats [7] = conditions: cited from earlier work; remark: listed apart in the source
rats [8] = conditions: intraperitoneally 1 or 10 mg/kg, 8 times, twice a day; cited from earlier work
mice [9] = conditions: oral doses 48-160 mg/kg; cited from earlier work
rats [10] = conditions: oral doses of 25 and 100 mg/kg; cited from earlier work
[11] = rats, 3 mg/kg, cited from earlier work
[12] = rat, single oral administration; cited from earlier work
[13] = human, cited from earlier work
[14] = biological target: T1, serotonin 5-HT2A-receptors in frontal cortex (Homo sapiens, UniProt P28223); conditions: human brain, single oral dose; cited from earlier work
T1 construct: serotonin 5-HT2A-receptors in frontal cortex of healthy male volunteers; from tissue; host or cells: frontal cortex of living healthy male volunteers (in vivo)

[15] = human, cited from earlier work; for Cmin and Cmax range: repeated administration for one week

Chain of serotonin 5-HT2C-receptor (P28335 33-458): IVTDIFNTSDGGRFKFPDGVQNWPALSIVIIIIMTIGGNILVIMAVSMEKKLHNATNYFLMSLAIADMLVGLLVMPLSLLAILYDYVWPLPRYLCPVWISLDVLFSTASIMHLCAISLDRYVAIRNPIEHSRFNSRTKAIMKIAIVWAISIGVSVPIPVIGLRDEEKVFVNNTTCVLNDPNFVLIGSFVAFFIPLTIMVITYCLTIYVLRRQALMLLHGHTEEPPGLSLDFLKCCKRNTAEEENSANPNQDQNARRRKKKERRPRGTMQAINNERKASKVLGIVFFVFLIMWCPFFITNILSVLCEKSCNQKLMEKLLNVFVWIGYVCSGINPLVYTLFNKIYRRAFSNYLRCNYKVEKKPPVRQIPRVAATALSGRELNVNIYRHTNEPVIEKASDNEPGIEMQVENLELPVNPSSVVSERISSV
T1 sequence (P28223 whole entry): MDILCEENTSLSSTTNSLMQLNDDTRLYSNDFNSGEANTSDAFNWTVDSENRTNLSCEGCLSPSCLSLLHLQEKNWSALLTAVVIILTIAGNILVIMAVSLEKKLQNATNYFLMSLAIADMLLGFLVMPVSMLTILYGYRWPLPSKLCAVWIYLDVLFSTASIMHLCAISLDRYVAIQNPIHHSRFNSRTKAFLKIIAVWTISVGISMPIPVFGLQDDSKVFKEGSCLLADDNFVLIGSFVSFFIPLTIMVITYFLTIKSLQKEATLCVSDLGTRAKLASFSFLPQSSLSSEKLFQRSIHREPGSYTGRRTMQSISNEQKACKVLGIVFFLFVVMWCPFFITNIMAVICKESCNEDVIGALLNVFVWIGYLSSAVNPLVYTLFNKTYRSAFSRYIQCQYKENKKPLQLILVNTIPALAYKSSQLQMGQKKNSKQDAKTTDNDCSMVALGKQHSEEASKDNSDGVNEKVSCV
Chain of serotonin 5HT2A-receptor (P28223 whole entry): as above

CN(C)CCO[C@]1(c2ccccc2)C[C@H]2CC[C@]1(C)C2(C)C [deramciclane, (1R,2S,4R)-(−)-2-[N,N-(dimethylaminoethoxy)]-2-phenyl-1,7,7-trimethyl-bicyclo [2.2.1]heptane]
factor by which oral dose in man is lower for the same maximal plasma concentration as in rat [1]: 40 times | factor by which oral dose is lower for equal exposure in humans than in rats ([1]; rat): over 300 times | HAM-A score, difference from placebo ([2]; 5 mg b.i.d, 8 weeks): No difference | CGI severity of illness: percentage of patients not ill or very mildly ill ([2]; 5 mg b.i.d): 49% | responders (at least 50% reduction in HAM-A total score) ([2]; 5 mg b.i.d., n=31): 57% | HAM-A score decrease from baseline ([2]; 15 mg b.i.d, 8 weeks, p=0.006 vs placebo): 14.5 points | CGI severity of illness: percentage of patients not ill or very mildly ill ([2]; 15 mg b.i.d): 55% | responders (at least 50% reduction in HAM-A total score) ([2]; 15 mg b.i.d., n=39, p=0.020 vs placebo): 76% | CGI severity of illness: percentage of patients not ill or very mildly ill ([2]; 30 mg b.i.d, p=0.030): 61% | HAM-A score decrease from baseline ([2]; 30 mg b.i.d., 8 weeks, not significant vs placebo): 14.5 points | responders (at least 50% reduction in HAM-A total score) ([2]; 30 mg b.i.d., n=37): 70% | PWC value, Mean (SD) (withdrawal symptoms; 5 mg b.i.d., after 2 week wash-out): 9 (8) | PWC value, Mean (SD) (withdrawal symptoms; 5 mg b.i.d., after 8 week treatment): 9 (7) | PWC value, Mean (SD) (withdrawal symptoms; 15 mg b.i.d., after 2 week wash-out): 8 (7) | PWC value, Mean (SD) (withdrawal symptoms; 15 mg b.i.d., after 8 week treatment): 7 (8) | PWC value, Mean (SD) (withdrawal symptoms; 30 mg b.i.d., after 2 week wash-out): 8 (7) | PWC value, Mean (SD) (withdrawal symptoms; 30 mg b.i.d., after 8 week treatment): 8 (8) | withdrawal symptoms after abrupt discontinuation (withdrawal symptoms; after 8-week treatment): did not cause any withdrawal symptoms | effect on MADRS score (depressive symptoms; 5 mg b.i.d): ineffective | MADRS score decrease (depressive symptoms; 15 mg b.i.d, p=0.028): 7.7 points | MADRS score decrease (depressive symptoms; 30 mg b.i.d, p=0.016): 8.0 points | antagonism of the receptor (serotonin 5HT2A-receptor): potent antagonist | binding affinity (serotonin 5HT2A-receptor; in vitro): high affinity | antagonism of the receptor [3]: potent antagonist | binding affinity ([3]; in vitro): high affinity | minimum oral effective anti-anxiety dose (rats [4]; oral): 1 mg/kg | activity in punished drinking test (rats [4]; single oral administration, 1 mg/kg and 10 mg/kg): active | effect on social interaction time (rats [5]): enhanced the social interaction time | minimum effective dose (rats [5]): 0.7 mg/kg | activity in two compartment test (mice [6]): active | effect on caerulein-induced decrease in exploratory behavior (rats [7]; intraperitoneal dose of 0.5 mg/kg): able to attenuate | effect in elevated plus maze test (rats [7]; rats, single intraperitoneal doses 0.1 mg/kg-5 mg/kg): totally ineffective | effect on helpless behaviour induced by inescapable electric foot shocks (rats [8]): dose dependently attenuated helpless behaviour | effect on tetrabenazine-induced ptosis (mice [9]): negligible | effect in forced swimming test (rats [10]): clearly ineffective | radioactivity in organs including blood and the brain ([11]; intravenous administration): high radioactivity | radioactivity in organs, especially the brain ([11]; oral administration, compared with intravenous): substantially lower | mean AUC 0-∞ [12]: 11.9 ng·h/mL | Cmax ([13]; single 3 mg/kg oral dose): 217.5 ng/mL | mean AUC 0-∞ ([13]; single oral administration): 3737.8 ng·h/mL | plasma concentration at 50% 5HT2A-receptor occupancy [14]: ~21 ng/mL | plasma concentration at 90% 5HT2A-receptor occupancy [14]: about 70 ng/ml | Cmin and Cmax range ([15]; 20 mg daily): 16 to 33 ng/mL | Cmin and Cmax range ([15]; 60 mg daily): 48 to 91 ng/mL | Cmax ([15]; single oral 20 mg): 24 ± 9.4 ng/mL | Cmax ([15]; single oral 30 mg): 27 ± 6.1 ng/mL
